Experiment [1] has as its system Mtb KZN494. Kind of experiment: microbe, parasite or virus in culture. The note with it: Mycobacterium tuberculosis, KZN494, read-out: Mtb MIC KZN494/ MDR. It is filed as cell-based.
In experiment [2] the test system is Mtb TF274. Kind of experiment: microbe, parasite or virus in culture. It is filed as cell-based. As to conditions: Mycobacterium tuberculosis, TF274, read-out: Mtb MIC TF274/ XDR.
The test system of experiment [3] is mutant Mtb strain IAR2. It is filed as cell-based, Mycobacterium tuberculosis.

The source of these data is paper PMC10239758 (European journal of medicinal chemistry, 2023).

In brackets after ≈: the same amount, converted by molar mass.

For `c1ccc(-c2ccc(-c3ccnc(CN4CCC5(CCCC5)CC4)c3)cc2)cc1` [Compound 62, 8-((4-([1,1'-Biphenyl]-4-yl)pyridin-2-yl)methyl)-8-azaspiro[4.5]decane], the MIC in experiment [1] was 0.0156 to 0.0313 µg/mL (≈ 0.0408 to 0.0818 µM); in experiment [2], 0.0039 µg/mL (≈ 0.0102 µM). Further, the “MIC IAR2” value in experiment [3] came to 1 µg/mL (≈ 2.61 µM).
